Activity data for 1 compound are collected here from ChEMBL document CHEMBL3734654, “Mutational mapping of the transmembrane binding site of the G-protein coupled receptor TGR5 and binding mode prediction of TGR5 agonists” (Eur J Med Chem, 2015).

The experiment relates to T1, G-protein coupled bile acid receptor 1 (Homo sapiens), Q8TDU6 [E169A].
T1 sequence (whole entry): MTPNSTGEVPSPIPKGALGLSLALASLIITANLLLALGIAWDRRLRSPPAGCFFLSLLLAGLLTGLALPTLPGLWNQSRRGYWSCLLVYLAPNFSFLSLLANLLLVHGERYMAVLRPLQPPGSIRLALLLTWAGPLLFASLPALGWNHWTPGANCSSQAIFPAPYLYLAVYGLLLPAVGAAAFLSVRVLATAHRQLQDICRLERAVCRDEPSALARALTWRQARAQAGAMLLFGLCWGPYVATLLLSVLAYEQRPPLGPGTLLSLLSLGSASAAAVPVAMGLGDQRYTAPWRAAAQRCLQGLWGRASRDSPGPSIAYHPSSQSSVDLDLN
Kind of experiment: Agonist activity at human TGR5 E169A mutant expressed in HEK293 cells assessed as rise in intracellular cAMP level at 10 uM incubated for 16 hrs by luciferase reporter assay relative to wild type. It is filed as functional, cell-based. (Cyclic AMP is a second messenger, typically raised through Gs and lowered through Gi signalling.)

Each structure is given as a SMILES string. The source made the active and inactive calls. No cut-off for these calls is given here.

Take `C=C[C@@]1(C)CC(=O)[C@]2(O)[C@@]3(C)[C@@H](O)CCC(C)(C)[C@@H]3[C@H](O)[C@H](OC(C)=O)[C@@]2(C)O1`: the outcome was Active.
